Data reported in patent US20110065663A1, “ANTI-CANCER COMBINATION THERAPY” (Katholieke Universiteit Leuven, K.U. Leuven R&D, priority 2008, published 2011).
Read-outs that look alike come from different tables or passages of the source.

How the values were obtained:
Type in all cases: cell-based, human
MCF-7 cells = assay: Tumor cell proliferation assay, uninfected MCF-7 cells; settings: for IC50: Homo sapiens, uninfected MCF-7; for Ratio (1)/(2) MCF-7: IC50 in the absence of TPi to IC50 in the presence of TPi
Method: MCF-7 and MCF-7/HYOR cells were seeded in 48-well plates at 10,000 cells/cm^2. […] of the test compounds (5FU, 5′DFUR, CIdUrd, BrdUrd, IdUrd and TFT) with or without 10 μM TPi were added. The cells were incubated for another 4 days, trypsinized and counted by a Coulter counter (Analis, Suarlée, Belgium). In some experiments, the antibiotic plasmocin was added one or three days before addition of the test compounds.

MCF-7/HYOR cells [1] = assay: Tumor cell proliferation assay, M. hyorhinis-infected MCF-7 cells; settings: for IC50: Homo sapiens, MCF7; for Ratio (1)/(2) MCF-7/HYOR: IC50 in the absence of TPi to IC50 in the presence of TPi; for Anti-proliferative activity in MCF-7/HYOR after three days pre-incubation with doxycycline / Anti-proliferative activity in MCF-7/HYOR after three days pre-incubation with plasmocin: 3 days
Method: Mycoplasma hyorhinis (ATCC 17981) was obtained from the American Type Culture Collection (ATCC, Manassas, Va.). The freeze-dried bacteria were reconstituted by adding 1 ml of DMEM. […] The co-culture of MCF-7 cells and M. hyorhinis was maintained under the same conditions as the uninfected MCF-7 cells. […] The cells were incubated for another 4 days, trypsinized and counted by a Coulter counter (Analis, Suarlée, Belgium).

MCF-7/HYOR cells [2] = assay: Nucleotide incorporation assay, MCF-7/HYOR compared with MCF-7 cells; settings: 1 μCi radiolabeled compound; FIG. 4
Method: MCF-7 and MCF-7/HYOR cells were seeded at 10,000 cells/cm. After 48 hours, cells were treated with 1 μCi of ^3H-labeled nucleoside with or without 10 μM TPi. 16 h later, the medium was removed and the cells were washed twice with PBS. Next, the cells were trypsinized, transferred to Eppendorf tubes and centrifuged for 10 minutes at 1,400 rpm. The pellet was resuspended in 1 ml absolute ice-cold methanol and kept on ice for 20 minutes. After centrifugation for 20 minutes at 13,000 rpm the pellet was washed twice with methanol, resuspended in methanol and transferred to scintillation vials containing 9 ml of Ready safe liquid scintillation reagent (‘Hisafe 3’, Perkin Elmer, Waltham, Mass.). The radioactivity was measured by a Liquid scintillation analyzer (2300 TR, Packard, Canberra, Australia).

MCF-7/HYOR cell cultures = assay: Nucleoside metabolism experiments, distribution of drug-derived radiolabel in MCF-7/HYOR cell cultures; settings: MCF-7/HYOR
Method: Next, the cells were trypsinized, transferred to Eppendorf tubes and centrifuged for 10 minutes at 1,400 rpm. The pellet was resuspended in 1 ml absolute ice-cold methanol and kept on ice for 20 minutes. After centrifugation for 20 minutes at 13,000 rpm the pellet was washed twice with methanol, resuspended in methanol and transferred to scintillation vials containing 9 ml of Ready safe liquid scintillation reagent (‘Hisafe 3’, Perkin Elmer, Waltham, Mass.). The radioactivity was measured by a Liquid scintillation analyzer (2300 TR, Packard, Canberra, Australia). […] Next, the cells were incubated in 0.5 ml absolute ice-cold methanol and kept on ice for 20 minutes. After centrifugation for 20 minutes at 13,000 rpm, the supernatant was subjected to HPLC analysis. […] The amount of compound incorporated into nucleic acids was measured as described above.

[3] = MCF7, 96 h, no TPi, 4 days, read-out: IC50 MCF-7 As such
[4] = MCF7, with 10 μM TPi, read-out: IC50 MCF-7 +TPi (10 μM)
[5] = M. hyorhinis-infected MCF-7, no TPi, no plasmocin, read-out: IC50 MCF-7/HYOR As such
[6] = M. hyorhinis-infected MCF-7, with 10 μM TPi, read-out: IC50 MCF-7/HYOR +TPi (10 μM)
[7] = plasmocin 25 μg/ml, 1 day pretreatment, read-out: IC50 MCF-7/HYOR +plasmocin (25 μg/ml) 1 day prior to addition of test compounds
[8] = plasmocin 25 μg/ml, 3 days pretreatment, read-out: IC50 MCF-7/HYOR +plasmocin (25 μg/ml) 3 days prior to addition of test compounds

Compound: O=c1[nH]cc(F)c(=O)[nH]1 [5FU, 5-fluorouracil]
- IC50 (MCF-7 cells; [3]): 810 ± 240 nM
- IC50 (MCF-7 cells; [4]): 620 ± 290 nM
- Ratio (1)/(2) MCF-7 (MCF-7 cells): 1.3
- IC50 (MCF-7/HYOR cells [1]; [5]): 750 ± 240 nM
- IC50 (MCF-7/HYOR cells [1]; [6]): 530 ± 250 nM
- IC50 (MCF-7/HYOR cells [1]; [7]): 740 ± 110 nM
- IC50 (MCF-7/HYOR cells [1]; [8]): 670 ± 110 nM
- Ratio (1)/(2) MCF-7/HYOR (MCF-7/HYOR cells [1]): 1.4
- Incorporation into nucleic acids, infected versus uninfected MCF-7 cells (in words) (MCF-7/HYOR cells [2]): no difference

Compound: O=c1[nH]c(=O)n([C@H]2C[C@H](O)[C@@H](CO)O2)cc1Br [BrdUrd, 5-bromo-2′-deoxyuridine]
- IC50 (MCF-7 cells; [3]): 590 ± 100 nM
- IC50 (MCF-7 cells; [4]): 360 ± 10 nM
- Ratio (1)/(2) MCF-7 (MCF-7 cells): 1.6
- IC50 (MCF-7/HYOR cells [1]; [5]): 8600 ± 1170 nM
- IC50 (MCF-7/HYOR cells [1]; [6]): 840 ± 240 nM
- IC50 (MCF-7/HYOR cells [1]; [7]): 2220 ± 1100 nM
- IC50 (MCF-7/HYOR cells [1]; [8]): 740 ± 200 nM
- Ratio (1)/(2) MCF-7/HYOR (MCF-7/HYOR cells [1]): 10
- % of drug-derived radiolabel, In medium, Base (MCF-7/HYOR cell cultures; 1 μCi, 16 h): 49.5%
- % of drug-derived radiolabel, In medium, Nucleoside (MCF-7/HYOR cell cultures; 1 μCi, 16 h): 42.0%
- % of drug-derived radiolabel, In the cytosol of the cells, 5′-diphosphate (MCF-7/HYOR cell cultures; 1 μCi, 16 h): 0.2%
- % of drug-derived radiolabel, In the cytosol of the cells, 5′-monophosphate (MCF-7/HYOR cell cultures; 1 μCi, 16 h): 0.4%
- % of drug-derived radiolabel, In the cytosol of the cells, 5′-triphosphate (MCF-7/HYOR cell cultures; 1 μCi, 16 h): 0.2%
- % of drug-derived radiolabel, In the cytosol of the cells, Nucleoside/nucleobase (MCF-7/HYOR cell cultures; 1 μCi, 16 h): 6.4%
- % of drug-derived radiolabel, Incorporatio into DNA/RNA (MCF-7/HYOR cell cultures; 1 μCi, 16 h): 1.4%
- Share incorporated into the nucleic acids in the presence of TPi (MCF-7/HYOR cell cultures; in the presence of TPi): almost all
- Reduction of incorporation into nucleic acids in infected MCF-7/HYOR cells in comparison with uninfected MCF-7 cells (MCF-7/HYOR cells [2]): 45 fold

Compound: O=c1[nH]c(=O)n([C@H]2C[C@H](O)[C@@H](CO)O2)cc1Cl [CldUrd, 5-chloro-2′-deoxyuridine]
- IC50 (MCF-7 cells; [3]): 760 ± 190 nM
- IC50 (MCF-7 cells; [4]): 640 ± 150 nM
- Ratio (1)/(2) MCF-7 (MCF-7 cells): 1.2
- IC50 (MCF-7/HYOR cells [1]; [5]): 13000 ± 2870 nM
- IC50 (MCF-7/HYOR cells [1]; [6]): 1400 ± 700 nM
- Ratio (1)/(2) MCF-7/HYOR (MCF-7/HYOR cells [1]): 9.3

Compound: O=c1[nH]c(=O)n([C@H]2C[C@H](O)[C@@H](CO)O2)cc1I [IdUrd, 5-iodo-2′-deoxyuridine]
- IC50 (MCF-7 cells; [3]): 1100 ± 260 nM
- IC50 (MCF-7 cells; [4]): 980 ± 390 nM
- Ratio (1)/(2) MCF-7 (MCF-7 cells): 1.1
- IC50 (MCF-7/HYOR cells [1]; [5]): 12000 ± 500 nM
- IC50 (MCF-7/HYOR cells [1]; [6]): 310 ± 50 nM
- Ratio (1)/(2) MCF-7/HYOR (MCF-7/HYOR cells [1]): 39

Compound: O=c1[nH]cc(C(F)(F)F)c(=O)[nH]1 [TF-thymine]
- Incorporation into nucleic acids, infected versus uninfected MCF-7 cells (in words) (MCF-7/HYOR cells [2]): no difference

Compound: Nc1ccn([C@@H]2O[C@H](CO)[C@@H](O)[C@@H]2O)c(=O)n1 [araC, cytarabine]
- IC50 (MCF-7 cells; [3]): 50 ± 4 nM
- IC50 (MCF-7 cells; [4]): 48 ± 9 nM
- Ratio (1)/(2) MCF-7 (MCF-7 cells): 1.0
- IC50 (MCF-7/HYOR cells [1]; [5]): 1200 ± 800 nM
- IC50 (MCF-7/HYOR cells [1]; [6]): 68 ± 3 nM
- Ratio (1)/(2) MCF-7/HYOR (MCF-7/HYOR cells [1]): 17
- Anti-proliferative activity in MCF-7/HYOR after three days pre-incubation with doxycycline (MCF-7/HYOR cells [1]): restores
- Anti-proliferative activity in MCF-7/HYOR after three days pre-incubation with plasmocin (MCF-7/HYOR cells [1]; plasmocin 25 μg/ml): restores

Compound: Nc1nc(Cl)nc2c1ncn2[C@H]1C[C@H](O)[C@@H](CO)O1 [cladribine]
- IC50 (MCF-7 cells; [3]): 460 ± 150 nM
- IC50 (MCF-7 cells; [4]): 390 ± 160 nM
- Ratio (1)/(2) MCF-7 (MCF-7 cells): 1.2
- IC50 (MCF-7/HYOR cells [1]; [5]): 13000 ± 3000 nM
- IC50 (MCF-7/HYOR cells [1]; [6]): 780 ± 230 nM
- Ratio (1)/(2) MCF-7/HYOR (MCF-7/HYOR cells [1]): 17
- Reduction of cytostatic activity in infected MCF-7/HYOR compared to control MCF-7 cells (MCF-7/HYOR cells [1]; M. hyorhinis infection): about 30 fold
- Anti-proliferative activity in MCF-7/HYOR after three days pre-incubation with doxycycline (MCF-7/HYOR cells [1]): restores
- Anti-proliferative activity in MCF-7/HYOR after three days pre-incubation with plasmocin (MCF-7/HYOR cells [1]; plasmocin 25 μg/ml): restores

Compound: O=c1ccn([C@H]2C[C@H](O)[C@@H](CO)O2)c(=O)[nH]1 [dUrd, 2′-deoxyuridine]
- Reduction of incorporation into nucleic acids in infected MCF-7/HYOR cells in comparison with uninfected MCF-7 cells (MCF-7/HYOR cells [2]): 3 fold

Compound: Cc1c[nH]c(=O)[nH]c1=O [thymine]
- Incorporation into nucleic acids, infected versus uninfected MCF-7 cells (in words) (MCF-7/HYOR cells [2]): no difference

Compound: O=c1cc[nH]c(=O)[nH]1 [uracil]
- Incorporation into nucleic acids, infected versus uninfected MCF-7 cells (in words) (MCF-7/HYOR cells [2]): no difference
